Measurements reported in ChEMBL document CHEMBL4706513, “New insight into 20(S)-ginsenoside Rh2 against T-cell acute lymphoblastic leukemia associated with the gut microbiota and the immune system” (2020).
Activity calls are given as the source filed them. The rule behind the calls is not given here.

Assays:
Mus musculus [1] = assay: In vivo inhibition of PI3K phosphorylation at Ser249 residue in spleen of SCID/NOD mouse xenografted with human Jurkat cells at 40 mg/kg, po administered once a day for 3 weeks by Western blot method; type: functional, organism-based; conditions: dose 40.0 mg/kg/day
Mus musculus [2] = assay: Inhibition of intestinal dysbiosis in SCID/NOD mouse xenografted with human Jurkat cells assessed as decrease in abundance of Proteobacteria in cecum at 40 mg/kg, po administered once a day for 3 weeks by multiplexed 16S rRNA gene sequencing analysis; type: functional, organism-based; conditions: dose 40.0 mg/kg/day
Jurkat [3] = assay: Antitumour activity against human Jurkat cells xenografted in SCID/NOD mouse assessed as decrease in expression of CD3 in bone marrow at 40 mg/kg, po administered once a day for 3 weeks by immunohistochemical staining method; type: functional, organism-based; conditions: dose 40.0 mg/kg/day
Mus musculus [4] = assay: Induction of intestinal homeostasis in SCID/NOD mouse xenografted with human Jurkat cells assessed as decrease in disordered arrangement of epithelial cells in the colon at 40 mg/kg, po administered once a day for 3 weeks by AB-PAS staining based microscopic analysis; type: functional, organism-based; conditions: dose 40.0 mg/kg/day
Mus musculus [5] = assay: Inhibition of spleen infiltration in SCID/NOD mouse xenografted with human Jurkat cells assessed as decrease in CD45 expression in spleen at 40 mg/kg, po once a day for 3 weeks by immunohistochemical staining method; type: functional, organism-based; conditions: dose 40.0 mg/kg/day
Mus musculus [6] = assay: Inhibition of intestinal dysbiosis in SCID/NOD mouse xenografted with human Jurkat cells assessed as decrease in abundance of Alistipes in cecum at 40 mg/kg, po administered once a day for 3 weeks by multiplexed 16S rRNA gene sequencing analysis; type: functional, organism-based; conditions: dose 40.0 mg/kg/day
Mus musculus [7] = assay: Inhibition of spleen infiltration in SCID/NOD mouse xenografted with human Jurkat cells assessed as decrease in CD3 expression in spleen at 40 mg/kg, po once a day for 3 weeks by immunohistochemical staining method; type: functional, organism-based; conditions: dose 40.0 mg/kg/day
Mus musculus [8] = assay: Induction of intestinal homeostasis in SCID/NOD mouse xenografted with human Jurkat cells assessed as upregulation of occludin mRNA levels in colon at 40 mg/kg, po administered once a day for 3 weeks by real time RT-PCR analysis; type: functional, organism-based; conditions: dose 40.0 mg/kg/day
Mus musculus [9] = assay: In vivo inhibition of Akt phosphorylation at Ser473 residue in spleen of SCID/NOD mouse xenografted with human Jurkat cells at 40 mg/kg, po administered once a day for 3 weeks by Western blot method; type: functional, organism-based; conditions: dose 40.0 mg/kg/day
Mus musculus [10] = assay: Inhibition of intestinal inflammation in SCID/NOD mouse xenografted with human Jurkat cells assessed as decrease in LPS level in colon at 40 mg/kg, po administered once a day for 3 weeks by ELISA; type: functional, organism-based; conditions: dose 40.0 mg/kg/day
Mus musculus [11] = assay: Inhibition of intestinal dysbiosis in SCID/NOD mouse xenografted with human Jurkat cells assessed as increase in abundance of Lactobacillus in cecum at 40 mg/kg, po administered once a day for 3 weeks by multiplexed 16S rRNA gene sequencing analysis; type: functional, organism-based; conditions: dose 40.0 mg/kg/day
Mus musculus [12] = assay: Inhibition of spleen infiltration in SCID/NOD mouse xenografted with human Jurkat cells assessed as reduction in spleen enlargement at 40 mg/kg, po administered once a day for 3 weeks; type: functional, organism-based; conditions: dose 40.0 mg/kg/day
Mus musculus [13] = assay: Inhibition of spleen infiltration in SCID/NOD mouse xenografted with human Jurkat cells assessed as reduction in spleen index at 40 mg/kg, po administered once a day for 3 weeks; type: functional, organism-based; conditions: dose 40.0 mg/kg/day
Jurkat [14] = assay: Antitumour activity against human Jurkat cells xenografted in SCID/NOD mouse assessed as proportion of CD45-positive cells in peripheral blood at 40 mg/kg, po administered once a day for 3 weeks by immunophenotyping based flow cytometry method (reference value: 4.88%); type: functional; conditions: dose 40 mg/kg/day
Mus musculus [15] = assay: Inhibition of intestinal dysbiosis in SCID/NOD mouse xenografted with human Jurkat cells assessed as increase in abundance of Verrucomicrobia in cecum at 40 mg/kg, po administered once a day for 3 weeks by multiplexed 16S rRNA gene sequencing analysis; type: functional, organism-based; conditions: dose 40.0 mg/kg/day
Mus musculus [16] = assay: Inhibition of intestinal inflammation in SCID/NOD mouse xenografted with human Jurkat cells assessed as decrease in TLR4 expression in colon at 40 mg/kg, po administered once a day for 3 weeks by Western blot analysis; type: functional, organism-based; conditions: dose 40.0 mg/kg/day
Mus musculus [17] = assay: Inhibition of intestinal inflammation in SCID/NOD mouse xenografted with human Jurkat cells assessed as decrease in MYD88 expression in colon at 40 mg/kg, po administered once a day for 3 weeks by Western blot analysis; type: functional, organism-based; conditions: dose 40.0 mg/kg/day
Mus musculus [18] = assay: Induction of immune response in SCID/NOD mouse xenografted with human Jurkat cells assessed as decrease in IL-6 level in spleen at 40 mg/kg, po administered once a day for 3 weeks by ELISA reader method; type: functional, organism-based; conditions: dose 40.0 mg/kg/day
Mus musculus [19] = assay: Inhibition of intestinal dysbiosis in SCID/NOD mouse xenografted with human Jurkat cells assessed as increase in abundance of Lachnospiraceae_ NK4A136_group in cecum at 40 mg/kg, po administered once a day for 3 weeks by multiplexed 16S rRNA gene sequencing analysis; type: functional, organism-based; conditions: dose 40.0 mg/kg/day
Mus musculus [20] = assay: Inhibition of intestinal inflammation in SCID/NOD mouse xenografted with human Jurkat cells assessed as decrease in TNFalpha level in colon at 40 mg/kg, po administered once a day for 3 weeks by ELISA; type: functional, organism-based; conditions: dose 40.0 mg/kg/day
Mus musculus [21] = assay: Inhibition of intestinal dysbiosis in SCID/NOD mouse xenografted with human Jurkat cells assessed as decrease in ratio of Firmicutes to Bacteroidetes in cecum at 40 mg/kg, po administered once a day for 3 weeks by multiplexed 16S rRNA gene sequencing analysis; type: functional; conditions: dose 40 mg/kg/day
Mus musculus [22] = assay: Inhibition of intestinal inflammation in SCID/NOD mouse xenografted with human Jurkat cells assessed as decrease in IL-6 level in colon at 40 mg/kg, po administered once a day for 3 weeks by ELISA; type: functional, organism-based; conditions: dose 40.0 mg/kg/day
Mus musculus [23] = assay: Induction of intestinal homeostasis in SCID/NOD mouse xenografted with human Jurkat cells assessed as increase in goblet cells in the glands at 40 mg/kg, po administered once a day for 3 weeks by Hand E staining based microscopic analysis; type: functional, organism-based; conditions: dose 40.0 mg/kg/day
Mus musculus [24] = assay: Antitumour activity against human Jurkat cells xenografted in SCID/NOD mouse assessed as decrease in expression of CD45 in bone marrow at 40 mg/kg, po administered once a day for 3 weeks by immunohistochemical staining method; type: functional, organism-based; conditions: dose 40.0 mg/kg/day

## CC(C)=CCC[C@](C)(O)[C@H]1CC[C@]2(C)[C@@H]1[C@H](O)C[C@@H]1[C@@]3(C)CC[C@H](O[C@@H]4O[C@H](CO)[C@@H](O)[C@H](O)[C@H]4O)C(C)(C)[C@@H]3CC[C@]12C [GINSENOSIDE RH2]
Mus musculus [1]
  inhibition: Active
Mus musculus [2]
  inhibition: Active
Jurkat [3]
  Activity: Active
Mus musculus [4]
  Activity: Active
Mus musculus [5]
  inhibition: Active
Mus musculus [6]
  inhibition: Active
Mus musculus [7]
  inhibition: Active
Mus musculus [8]
  Activity: Active
Mus musculus [9]
  inhibition: Active
Mus musculus [10]
  inhibition: Active
Mus musculus [11]
  inhibition: Active
Mus musculus [12]
  inhibition: Active
Mus musculus [13]
  inhibition: Active
Jurkat [14]
  Activity: 1.28%
Mus musculus [15]
  inhibition: Active
Mus musculus [16]
  inhibition: Active
Mus musculus [17]
  inhibition: Active
Mus musculus [18]
  Activity: Active
Mus musculus [19]
  inhibition: Active
Mus musculus [20]
  inhibition: Active
Mus musculus [21]
  Ratio: 0.47
Mus musculus [22]
  inhibition: Active
Mus musculus [23]
  Activity: Active
Mus musculus [24]
  Activity: Active
